# Test results as given in patent US6335371B1, “Method for inducing cognition enhancement” (Orion Corporation, priority 2000, dated 2002).
# Legend:
# [1] = Randomised placebo-controlled double-blind study, Udvalg for Kliniske Undersogelser (UKU) scale, concentration difficulties; format: in vivo; conditions: 5, 15, 30 mg b.i.d
# Procedure: (§1) The cognition enhancement properties of deramciclane were studied in a randomised placebo-controlled double-blind study. The subjects were randomly assigned to four parallel groups to receive one tablet twice daily (b.i.d) of a placebo, 5 mg (=10 mg/day), 15 mg (=30 mg/day), or 30 mg (=60 mg/day) deramciclane. The study started with a one-week placebo run-in period, followed by an eight-week placebo-controlled active treatment and a two-week placebo washout period.
# (§2) The efficacy of deramciclane on cognition enhancement was studied using the cognitive part of Hamilton Anxiety Scale (HAM-A) which consists of the concentration and memory items. Cognition enhancement was also assessed using Udvalg for Kliniske Undersogelser (UKU) scale.
# [2] = Randomised placebo-controlled double-blind study, cognitive part of Hamilton Anxiety Scale (HAM-A; concentration and memory items); format: in vivo
# Procedure: as §1, §2
smiles,measurement,setting,value
"CN(C)CCO[C@]1(c2ccccc2)C[C@H]2CC[C@]1(C)C2(C)C [deramciclane, (1R,2S,4R)-(−)-2-phenyl 2-(dimethylaminoethoxy)-1,7,7-trimethyl-bicyclo[2.2.1]heptane]","Trend analysis (dose-response relationship), concentration difficulties, UKU-scale",[1],statistically significant positive correlation
same,"HAM-A Intellectual, cognitive: subjects rated Mild, number (%)","[2]; After 8 weeks, 5 mg b.i.d",20 (47%)
same,"HAM-A Intellectual, cognitive: subjects rated Moderate, number (%)","[2]; After 8 weeks, 5 mg b.i.d",6 (14%)
same,"HAM-A Intellectual, cognitive: subjects rated Not Present, number (%)","[2]; After 8 weeks, 5 mg b.i.d",15 (35%)
same,"HAM-A Intellectual, cognitive: subjects rated Severe, number (%)","[2]; After 8 weeks, 5 mg b.i.d",2 (5%)
same,"HAM-A Intellectual, cognitive: subjects rated Mild, number (%)","[2]; After 8 weeks, 15 mg b.i.d.",19 (43%)
same,"HAM-A Intellectual, cognitive: subjects rated Moderate, number (%)","[2]; After 8 weeks, 15 mg b.i.d.",3 (7%)
same,"HAM-A Intellectual, cognitive: subjects rated Not Present, number (%)","[2]; After 8 weeks, 15 mg b.i.d.",21 (48%)
same,"HAM-A Intellectual, cognitive: subjects rated Severe, number (%)","[2]; After 8 weeks, 15 mg b.i.d.",1 (2%)
same,"HAM-A Intellectual, cognitive: subjects rated Mild, number (%)","[2]; After 8 weeks, 30 mg b.i.d.",14 (30%)
same,"HAM-A Intellectual, cognitive: subjects rated Moderate, number (%)","[2]; After 8 weeks, 30 mg b.i.d.",10 (22%)
same,"HAM-A Intellectual, cognitive: subjects rated Not Present, number (%)","[2]; After 8 weeks, 30 mg b.i.d.",22 (48%)
same,"HAM-A Intellectual, cognitive: subjects rated Severe, number (%)","[2]; After 8 weeks, 30 mg b.i.d.",0
same,"HAM-A Intellectual, cognitive: subjects rated Mild, number (%)","[2]; Baseline, 5 mg b.i.d group",17 (31%)
same,"HAM-A Intellectual, cognitive: subjects rated Moderate, number (%)","[2]; Baseline, 5 mg b.i.d group",33 (61%)
same,"HAM-A Intellectual, cognitive: subjects rated Not Present, number (%)","[2]; Baseline, 5 mg b.i.d group",3 (6%)
same,"HAM-A Intellectual, cognitive: subjects rated Severe, number (%)","[2]; Baseline, 5 mg b.i.d group",1 (2%)
same,"HAM-A Intellectual, cognitive: subjects rated Mild, number (%)","[2]; Baseline, 15 mg b.i.d. group",12 (24%)
same,"HAM-A Intellectual, cognitive: subjects rated Moderate, number (%)","[2]; Baseline, 15 mg b.i.d. group",35 (69%)
same,"HAM-A Intellectual, cognitive: subjects rated Not Present, number (%)","[2]; Baseline, 15 mg b.i.d. group",3 (6%)
same,"HAM-A Intellectual, cognitive: subjects rated Severe, number (%)","[2]; Baseline, 15 mg b.i.d. group",1 (2%)
same,"HAM-A Intellectual, cognitive: subjects rated Mild, number (%)","[2]; Baseline, 30 mg b.i.d. group",15 (28%)
same,"HAM-A Intellectual, cognitive: subjects rated Moderate, number (%)","[2]; Baseline, 30 mg b.i.d. group",28 (53%)
same,"HAM-A Intellectual, cognitive: subjects rated Not Present, number (%)","[2]; Baseline, 30 mg b.i.d. group",3 (6%)
same,"HAM-A Intellectual, cognitive: subjects rated Severe, number (%)","[2]; Baseline, 30 mg b.i.d. group",7 (13%)
same,Effect on cognition measured by the cognitive part of the HAM-A,"[2]; eight-week treatment, 5, 15 or 30 mg b.i.d",improved the cognition
